Laboratory results as given in patent publication US20250197399A1, “COMPOUNDS, COMPOSITIONS, AND METHODS” (Tenvie Therapeutics, Inc., priority 2022, published 2025).
Where two headings read alike, the source gives them in different places.

Tested on: NLRP3
Test: IL-1β secretion assay in PMA-differentiated, LPS/nigericin-stimulated THP-1 cells (ELISA)
Format: cell-based
Details: Homo sapiens, THP-1, THP-1 cells, 25 ng/mL LPS then nigericin, IL-1β in supernatant
Procedure, shortened: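 PMA-differentiated (5 ng/mL, 40 h) THP-1 cells primed with 25 ng/mL LPS in serum-free medium for 2 h, then compound (0.5% DMSO) for 1 h before nigericin, 2 h at 37 °C. Supernatant IL-1β measured by sandwich ELISA; dose-response normalized to LPS+nigericin high and LPS-only low controls.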

[1] = read-out: Activity (IC50 class)

SMILES | IC50 (read-out: Activity) [µM] | IC50 [1] [µM]
O=C(CN1C[C@]2(C[C@H]2F)c2cc(Br)ccc2C1=O)Nc1ncc2cn[nH]c2n1 [Example 54, 2-[(2′R,4S)-6-bromo-2′-fluoro-1-oxospiro[3H-isoquinoline-4,1′-cyclopropane]-2-yl]-N-(1H-pyrazolo[3,4-d]pyrimidin-6-yl)acetamide] | 0.005 | < 1
O=C(CN1CC2(CC2)c2cc(Br)ccc2C1=O)Nc1ncc2nc[nH]c2n1 [Example 55, 2-(6-bromo-1-oxospiro[3H-isoquinoline-4,1′-cyclopropane]-2-yl)-N-(9H-purin-2-yl)acetamide] | 0.114 | < 1
O=C(CN1CC2(CC2)c2cc(Br)ccc2C1=O)Nc1ncc2c(C(F)(F)F)n[nH]c2n1 [Example 58, 2-(6-bromo-1-oxospiro[3H-isoquinoline-4,1′-cyclopropane]-2-yl)-N-[3-(trifluoromethyl)-1H-pyrazolo[3,4-d]pyrimidin-6-yl]acetamide] | 0.279 | < 1
O=C(CN1CC2(CC2)c2cc(Br)ccc2C1=O)Nc1nc2[nH]ncc2cc1F [Example 59, 2-(6-bromo-1-oxospiro[3H-isoquinoline-4,1′-cyclopropane]-2-yl)-N-[5-fluoro-1H-pyrazolo[3,4-b]pyridin-6-yl]acetamide] | 0.322 | < 1
COC(=O)C12CC(NC(=O)CN3CC4(CC4)c4cc(Br)ccc4C3=O)(C1)C2 [Example 60, methyl 3-[[2-(6-bromo-1-oxospiro[3H-isoquinoline-4,1′-cyclopropane]-2-yl)acetyl]amino]bicyclo[1.1.1]pentane-1-carboxylate] | 0.216 | < 1
O=C(CN1CC2(CC2)c2c(ccc(Br)c2F)C1=O)Nc1ccc2nn[nH]c2c1 [Example 61, N-(3H-benzotriazol-5-yl)-2-(6-bromo-5-fluoro-1-oxospiro[3H-isoquinoline-4,1′-cyclopropane]-2-yl)acetamide] | 0.162 | < 1
O=C(CN1CC2(CC2)c2c(ccc(Br)c2F)C1=O)Nc1ncc2nc[nH]c2n1 [Example 62, 2-(6-bromo-5-fluoro-1-oxospiro[3H-isoquinoline-4,1′-cyclopropane]-2-yl)-N-(9H-purin-2-yl)acetamide] | 0.08 | < 1
O=C(CN1CC2(CC2(F)F)c2cc(Br)ccc2C1=O)Nc1ncc2cn[nH]c2n1 (stereo not shown) [Example 63, 2-(6-bromo-1′,1′-difluoro-1-oxospiro[3H-isoquinoline-4,2′-cyclopropane]-2-yl)-N-(1H-pyrazolo[3,4-d]pyrimidin-6-yl)acetamide] | 0.034 | < 1
